# From article PMC7710018, “Restoration of motor learning in a mouse model of Rett syndrome following long-term treatment with a novel small-molecule activator of TrkB” (Disease Models & Mechanisms, 2020)
# Entries after “also recorded” stand apart in the source; their conditions may differ. Read-outs that look alike come from different tables or passages of the source.
# Assays:
# 5-HT1A (h) = target: T1, 5-HT1A (h) (Homo sapiens, UniProt P08908); experiment: Cerep ExpresSProfile radioligand binding; settings: 10 micromolar, agonist radioligand
# T1 construct: purchased Cerep (ExpresSProfile)
# Procedure: (§1) To evaluate the relative binding specificity of LM22A-4 ([Massa et al., 2010]) and PTX-BD4-3, binding to a broad range of 55 pharmacologically relevant receptors, including numerous neurotransmitter and G-protein coupled receptors was assessed using standard radioligand competition binding assays (ExpressSProfile) performed by Cerep, Inc. (Seattle, WA, USA). In addition, ADME-Tox analysis was performed by Cerep, Inc. All experimental conditions are described on the Cerep website (www.cerep.fr).
# (§2) Ligand % Inhibition of Control Specific […]
# (§3) 48 Ca2+ channel (L, verapamil site) 0 ‐1.3 ‐0.7
# (§4) (phenylalkylamine) (antagonist radioligand) […]
# (§5) 51 Na+ channel (site 2) (antagonist radioligand) 0.6 11.7 6.1
# (§6) 52 Cl‐ channel (GABA‐gated) (antagonist 2.7 ‐5.3 ‐1.3 […]
# (§7) Table S1. In vitro binding assays. An ExpresSProfile screen of PTX-BD4-3 binding to a panel of pharmacologically relevant receptors was conducted by Cerep, Inc.
# (§8) (Eurofins Panlabs, MO). The results are expressed as percent inhibition of control specific binding obtained in the presence of 10 micromolar PTX-BD4-3. In this assay, values below 50% indicate no specific binding of PTX-BD4-3. The assay was negative for PTX-BD4-3 binding to all of the 55 receptors in the screen.
# (§9) (also on this page, place not known: 2B 5‐HT 3 5‐HT 5a 5‐HT 6 5‐HT 7 (agonis t VPAC 1 V 1 Ca 2+ K V SK Ca Na + Cl ‐ 5‐HT Disease Models & Mechanisms: doi:10.1242/dmm.044685: Supplementary information Disease Models & Mechanisms • Supplementary information)
# 5-HT2A (h) = target: T2, 5-HT2A (h) (Homo sapiens, UniProt P28223); experiment: Cerep ExpresSProfile radioligand binding; settings: 10 micromolar, antagonist radioligand
# T2 construct: purchased Cerep (ExpresSProfile)
# Procedure: as §1, §2, §3, §4, §5, §6, §7, §8, §9
# A2A (h) = target: T3, A2A (h) (Homo sapiens, UniProt P29274); experiment: Cerep ExpresSProfile radioligand binding; settings: 10 micromolar, agonist radioligand
# T3 construct: purchased Cerep (ExpresSProfile)
# Procedure: as §1, §2, §3, §4, §5, §6, §7, §8, §9
# B2 (h) = target: T4, B2 (h) (Homo sapiens, UniProt P30411); experiment: Cerep ExpresSProfile radioligand binding; settings: 10 micromolar, agonist radioligand
# T4 construct: purchased Cerep (ExpresSProfile)
# T4 sequence (P30411 1-391): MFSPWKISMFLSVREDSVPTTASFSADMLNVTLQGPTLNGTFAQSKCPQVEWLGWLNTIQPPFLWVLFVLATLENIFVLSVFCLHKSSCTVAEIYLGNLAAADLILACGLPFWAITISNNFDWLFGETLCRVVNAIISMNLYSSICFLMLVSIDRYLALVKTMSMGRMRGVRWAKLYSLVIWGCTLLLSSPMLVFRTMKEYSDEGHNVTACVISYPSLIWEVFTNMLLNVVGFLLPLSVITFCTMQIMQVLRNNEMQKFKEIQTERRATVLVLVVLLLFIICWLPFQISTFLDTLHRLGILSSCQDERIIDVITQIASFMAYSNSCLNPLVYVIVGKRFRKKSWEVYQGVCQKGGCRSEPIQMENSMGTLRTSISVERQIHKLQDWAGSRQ
# Procedure: as §1, §2, §3, §4, §5, §6, §7, §8, §9
# BZD (central) = experiment: Cerep ExpresSProfile radioligand binding; settings: 10 micromolar; agonist radioligand
# Procedure: as §1, §2, §3, §4, §5, §6, §7, §8, §9
# D1 (h) = target: T5, D1 (h) (Homo sapiens, UniProt P21728); experiment: Cerep ExpresSProfile radioligand binding; settings: 10 micromolar, antagonist radioligand
# T5 construct: purchased Cerep (ExpresSProfile)
# Procedure: as §1, §2, §3, §4, §5, §6, §7, §8, §9
# EP4 (h) = target: T6, EP4 (h) (Homo sapiens, UniProt P35408); experiment: Cerep ExpresSProfile radioligand binding; settings: 10 micromolar, agonist radioligand
# T6 construct: purchased Cerep (ExpresSProfile)
# Procedure: as §1, §2, §3, §4, §5, §6, §7, §8, §9
# GAL2 (h) = target: T7, GAL2 (h) (Homo sapiens, UniProt O43603); experiment: Cerep ExpresSProfile radioligand binding; settings: 10 micromolar; agonist radioligand; read-out: % Inhibition of Control Specific Binding 2nd
# T7 construct: purchased Cerep (ExpresSProfile)
# Procedure: as §1, §2, §3, §4, §5, §6, §7, §8, §9
# H1 (h) = target: T8, H1 (h) (Homo sapiens, UniProt P35367); experiment: Cerep ExpresSProfile radioligand binding; settings: 10 micromolar, antagonist radioligand
# T8 construct: purchased Cerep (ExpresSProfile)
# Procedure: as §1, §2, §3, §4, §5, §6, §7, §8, §9
# μ (MOP) (h) = target: T9, μ (MOP) (h) (Homo sapiens, UniProt P35372); experiment: Cerep ExpresSProfile radioligand binding; settings: 10 micromolar; agonist radioligand; read-out: % Inhibition of Control Specific Binding 1st
# T9 construct: purchased Cerep (ExpresSProfile)
# Procedure: as §1, §2, §3, §4, §5, §6, §7, §8, §9
# [1] = system: 55 pharmacologically relevant receptors; experiment: Cerep ExpresSProfile screen, whole panel; settings: 10 μM; inhibition of binding greater than 50% = significant binding
# From the text: To further define the specificity of PTX-BD4-3 for TrkB, we screened 55 pharmacologically relevant receptors, including neurotransmitter and G-protein coupled receptors for PTX-BD4-3 binding (Table S1). […] Thus, as with LM22A-4 ([Massa et al., 2010]), the specificity of PTX-BD4-3 for TrkB is supported by multiple lines of evidence, including receptor binding, receptor activation, receptor adaptor recruitment and cell survival assays.
# as §1, with “(www.cerep.fr). […]” for “(www.cerep.fr).”
# as §3, §4, §5, §6
# Table S1. In vitro binding assays. […]
# (Eurofins Panlabs, MO). The results are expressed as percent inhibition of control specific binding obtained in the presence of 10 micromolar PTX-BD4-3. […]
# [2] = read-out: % Inhibition of Control Specific Binding 1st
# [3] = read-out: % Inhibition of Control Specific Binding Mean
# [4] = read-out: % Inhibition of Control Specific Binding 2nd
# T8 sequence (P35367 whole entry): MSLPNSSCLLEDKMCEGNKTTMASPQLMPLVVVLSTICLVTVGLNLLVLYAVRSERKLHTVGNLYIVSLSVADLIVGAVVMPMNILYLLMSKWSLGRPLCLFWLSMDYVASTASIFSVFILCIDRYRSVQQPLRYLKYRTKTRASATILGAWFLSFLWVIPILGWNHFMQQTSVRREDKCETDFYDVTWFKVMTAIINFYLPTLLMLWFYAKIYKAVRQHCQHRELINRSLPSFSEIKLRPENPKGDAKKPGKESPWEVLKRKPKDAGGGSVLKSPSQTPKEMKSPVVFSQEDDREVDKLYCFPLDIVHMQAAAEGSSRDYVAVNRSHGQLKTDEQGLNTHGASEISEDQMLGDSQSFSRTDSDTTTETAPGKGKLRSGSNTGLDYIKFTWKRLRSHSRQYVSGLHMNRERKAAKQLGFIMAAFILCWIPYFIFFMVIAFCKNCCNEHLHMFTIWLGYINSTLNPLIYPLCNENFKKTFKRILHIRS
# T3 sequence (P29274 whole entry): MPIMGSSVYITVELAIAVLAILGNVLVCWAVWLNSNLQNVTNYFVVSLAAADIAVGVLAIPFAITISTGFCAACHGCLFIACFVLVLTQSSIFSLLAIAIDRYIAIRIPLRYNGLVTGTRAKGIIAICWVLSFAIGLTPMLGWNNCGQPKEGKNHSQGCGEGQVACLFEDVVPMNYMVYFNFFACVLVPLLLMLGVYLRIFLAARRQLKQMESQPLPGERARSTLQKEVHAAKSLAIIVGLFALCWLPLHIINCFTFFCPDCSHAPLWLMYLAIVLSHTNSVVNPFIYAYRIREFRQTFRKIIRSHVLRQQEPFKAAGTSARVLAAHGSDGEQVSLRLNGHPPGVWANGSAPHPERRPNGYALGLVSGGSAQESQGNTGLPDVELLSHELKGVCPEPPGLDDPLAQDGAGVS
# T6 sequence (P35408 whole entry): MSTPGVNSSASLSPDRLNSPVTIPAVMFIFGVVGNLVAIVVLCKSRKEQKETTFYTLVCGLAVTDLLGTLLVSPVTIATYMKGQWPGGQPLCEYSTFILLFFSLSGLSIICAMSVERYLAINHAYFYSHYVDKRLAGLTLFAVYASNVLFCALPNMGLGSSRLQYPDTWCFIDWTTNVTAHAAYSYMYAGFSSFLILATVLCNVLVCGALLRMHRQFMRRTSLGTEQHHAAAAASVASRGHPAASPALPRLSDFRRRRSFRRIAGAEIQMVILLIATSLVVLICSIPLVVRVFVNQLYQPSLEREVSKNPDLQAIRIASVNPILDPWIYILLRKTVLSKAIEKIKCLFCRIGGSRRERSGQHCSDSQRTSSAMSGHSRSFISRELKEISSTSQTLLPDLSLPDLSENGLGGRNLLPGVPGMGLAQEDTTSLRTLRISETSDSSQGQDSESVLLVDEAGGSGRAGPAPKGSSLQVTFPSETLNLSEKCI
# T5 sequence (P21728 whole entry): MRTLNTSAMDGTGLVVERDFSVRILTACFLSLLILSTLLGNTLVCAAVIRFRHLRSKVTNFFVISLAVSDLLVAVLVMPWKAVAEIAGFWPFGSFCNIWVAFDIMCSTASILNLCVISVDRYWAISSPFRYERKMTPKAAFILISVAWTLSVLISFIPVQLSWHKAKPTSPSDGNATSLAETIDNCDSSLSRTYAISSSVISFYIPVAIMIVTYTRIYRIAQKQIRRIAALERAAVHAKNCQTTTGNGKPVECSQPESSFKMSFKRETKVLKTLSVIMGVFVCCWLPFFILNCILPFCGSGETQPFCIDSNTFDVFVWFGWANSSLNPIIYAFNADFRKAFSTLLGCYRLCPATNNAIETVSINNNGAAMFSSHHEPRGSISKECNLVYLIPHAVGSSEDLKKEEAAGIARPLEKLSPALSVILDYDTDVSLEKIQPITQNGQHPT
# T1 sequence (P08908 whole entry): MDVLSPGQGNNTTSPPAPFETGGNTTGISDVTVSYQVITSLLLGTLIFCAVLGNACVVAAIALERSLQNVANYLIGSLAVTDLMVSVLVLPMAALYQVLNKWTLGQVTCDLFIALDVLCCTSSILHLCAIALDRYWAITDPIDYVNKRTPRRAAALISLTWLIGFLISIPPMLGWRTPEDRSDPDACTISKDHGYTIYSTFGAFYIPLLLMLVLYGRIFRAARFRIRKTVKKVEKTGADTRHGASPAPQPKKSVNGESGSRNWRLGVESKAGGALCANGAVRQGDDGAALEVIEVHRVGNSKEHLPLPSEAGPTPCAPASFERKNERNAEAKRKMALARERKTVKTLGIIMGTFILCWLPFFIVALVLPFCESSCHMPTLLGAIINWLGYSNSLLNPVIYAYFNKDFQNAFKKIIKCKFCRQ
# T2 sequence (P28223 whole entry): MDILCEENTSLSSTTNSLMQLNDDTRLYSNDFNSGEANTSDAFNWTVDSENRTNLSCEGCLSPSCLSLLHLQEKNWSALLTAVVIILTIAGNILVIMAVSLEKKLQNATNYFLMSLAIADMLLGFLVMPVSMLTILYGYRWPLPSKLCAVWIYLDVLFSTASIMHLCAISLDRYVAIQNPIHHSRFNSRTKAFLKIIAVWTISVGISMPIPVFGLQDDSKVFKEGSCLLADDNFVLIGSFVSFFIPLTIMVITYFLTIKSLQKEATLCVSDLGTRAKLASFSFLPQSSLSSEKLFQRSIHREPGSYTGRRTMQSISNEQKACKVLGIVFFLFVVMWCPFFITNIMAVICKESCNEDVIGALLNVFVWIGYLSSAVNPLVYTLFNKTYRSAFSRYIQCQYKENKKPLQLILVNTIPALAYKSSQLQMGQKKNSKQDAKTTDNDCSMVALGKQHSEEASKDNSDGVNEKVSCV
# T7 sequence (O43603 whole entry): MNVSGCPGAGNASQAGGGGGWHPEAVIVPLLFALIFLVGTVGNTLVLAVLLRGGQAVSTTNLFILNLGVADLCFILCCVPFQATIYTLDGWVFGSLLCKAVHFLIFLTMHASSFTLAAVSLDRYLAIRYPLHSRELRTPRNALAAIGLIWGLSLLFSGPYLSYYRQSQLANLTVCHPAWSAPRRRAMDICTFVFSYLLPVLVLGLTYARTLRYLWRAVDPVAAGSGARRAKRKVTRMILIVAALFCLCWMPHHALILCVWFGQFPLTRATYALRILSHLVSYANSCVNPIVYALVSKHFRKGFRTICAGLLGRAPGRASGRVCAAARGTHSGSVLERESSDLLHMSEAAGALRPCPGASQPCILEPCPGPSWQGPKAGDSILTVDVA
# T9 sequence (P35372 whole entry): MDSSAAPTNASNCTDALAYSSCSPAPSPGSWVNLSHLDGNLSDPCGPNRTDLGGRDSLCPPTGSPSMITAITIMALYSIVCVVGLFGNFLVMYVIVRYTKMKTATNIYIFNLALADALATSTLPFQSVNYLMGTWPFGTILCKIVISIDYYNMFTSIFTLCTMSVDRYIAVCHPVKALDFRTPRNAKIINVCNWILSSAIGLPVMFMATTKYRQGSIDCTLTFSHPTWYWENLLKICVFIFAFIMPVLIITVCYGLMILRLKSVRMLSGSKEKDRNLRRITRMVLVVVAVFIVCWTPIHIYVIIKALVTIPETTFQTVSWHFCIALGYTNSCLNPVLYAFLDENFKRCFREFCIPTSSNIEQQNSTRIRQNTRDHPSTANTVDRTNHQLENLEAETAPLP
smiles,measurement,setting,value
"COCCN(C)C(=O)c1cc(C(=O)N(C)CCOC)cc(C(=O)N(C)CCOC)c1 [PTX-BD4-3, benzene-1,3,5-tricarboxylic acid tris-[(2-methoxy-ethyl)-methyl-amide]]",inhibition at 10 µM,5-HT1A (h); [2],19.3%
same,inhibition at 10 µM,5-HT1A (h); [3],5%
same,inhibition at 10 µM,5-HT2A (h); [2],4.8%
same,inhibition at 10 µM,5-HT2A (h); [3],0%
same,inhibition at 10 µM,A2A (h); [2],11.4%
same,inhibition at 10 µM,A2A (h); [4],30.1%
same,inhibition at 10 µM,A2A (h); [3],20.7%
same,inhibition at 10 µM,B2 (h); [2],8.1%
same,inhibition at 10 µM,B2 (h); [4],0.3%
same,inhibition at 10 µM,B2 (h); [3],4.2%
same,% Inhibition of Control Specific Binding 1st,BZD (central),2.9%
same,inhibition at 10 µM,D1 (h); [2],10.7%
same,inhibition at 10 µM,D1 (h); [4],1.3%
same,inhibition at 10 µM,D1 (h); [3],6%
same,inhibition at 10 µM,EP4 (h); [2],9.5%
same,inhibition at 10 µM,EP4 (h); [4],10.4%
same,inhibition at 10 µM,EP4 (h); [3],9.9%
same,inhibition at 10 µM,GAL2 (h),6.3%
same,inhibition at 10 µM,H1 (h); [2],5.8%
same,inhibition at 10 µM,H1 (h); [4],5.2%
same,inhibition at 10 µM,H1 (h); [3],5.5%
same,inhibition at 10 µM,μ (MOP) (h),6.6%
same,binding within the panel of 55 receptors,[1],negative; also recorded: no significant binding
